Measured values reported in US10653693B2, “PRMT5 inhibitors and uses thereof” (Epizyme, Inc., priority 2014, dated 2020).
pIC50: −log10 of the molar value. Where two headings read alike, the source gives them in different places.

Assays:
Maver-1 = test: Long-term proliferation (LTP) assay; format: cell-based; conditions: Homo sapiens
Mino = test: Long-term proliferation (LTP) assay; format: cell-based; conditions: Homo sapiens
[1] = system: sDMA methylation in Granta-519 cells; test: sDMA western blot, 10 kDa band to total SmD3; format: cell-based; conditions: Homo sapiens
Method: (§1) The measurement of the 10 kDa band was used to calculate the methylation IC50 values. […] Concentration-dependent decreases in the 10 kDa band were observed on day 4 in all cell lines tested with representative western blots shown for Z-138 and Maver-1 cell lines (FIG. 1). Levels of the 10 kDa band from the western blots were quantified by densitometry and ratios of 10 kDa band (postulated to be SmD3me2s) to total SmD3 were calculated to determine the IC50s (Table 2, n=1 for all samples).

[2] = system: sDMA methylation in Jeko-1 cells; test: sDMA western blot, 10 kDa band to total SmD3; format: cell-based; conditions: Homo sapiens
Method: as §1

[3] = system: sDMA methylation in Maver-1 cells; test: sDMA western blot, 10 kDa band to total SmD3; format: cell-based; conditions: Homo sapiens
Method: as §1

[4] = system: sDMA methylation in Mino cells; test: sDMA western blot, 10 kDa band to total SmD3; format: cell-based; conditions: Homo sapiens
Method: as §1

[5] = system: sDMA methylation in Z-138 cells; test: sDMA western blot, 10 kDa band to total SmD3; format: cell-based; conditions: Homo sapiens
Method: as §1

Granta-519 = test: Gene expression of apoptotic response genes (real time PCR); format: cell-based, Human; conditions: day 4
Method: (§2) The fold change was calculated using the Comparative Ct method ([…]). N=1. A previous RNA Seq study in MCL cell lines using a tool compound with the same cellular potency as Formula B identified expression changes in a number of genes involved in the apoptotic response (unpublished results). These genes included the Bcl-2 family members PUMA and BAX, well characterized drivers of the apoptotic response. Other genes implicated in the apoptotic response were also identified and include PHLDA3, TP53I3, p21, APOBEC3H, TRIM22, and FAS.

Jeko-1 cells = test: as above; format: cell-based, Human; conditions: day 4
Method: as §2

Mino cells = test: as above; format: cell-based, Human; conditions: day 4
Method: as §2

Maver-1 xenograft model = test: 21 day mantle cell lymphoma xenograft study: TGI and tumor methyl mark; format: in vivo; conditions: all doses tested, day 21
Method: Data presented in this example were determined after analysis of 21 day samples of mantle cell lymphoma tumors. Cmin PK samples were taken prior to the last dose on day 21. Tumors were excised, weighed and processed for methyl mark. Methyl mark reduction was measured in tumor samples and is shown as percent of vehicle control (POC). Both SYM11 and sDMA Elisa were used to measure methyl mark and the data shown is averaged from 10 animals. Tumor growth inhibition was determined using tumor volume reduction at day 21 expressed as a percent of POC. In vivo inhibition curves were also generated and IC50 values determined. Plasma levels from each group are averaged from 5 animals. […] The average body weight loss (BWL) in all groups was <6%. All doses tested show >50% TGI. […] The average BWL in all groups was <4%. The average BWL in all groups was <8%, except in the 100 mg/kg does group were 4 animals exceeded BWL of 15%.

[6] = system: heme cancer cell lines (MCL, AML, MM, lymphoma); test: Cell Titer-Glo growth/death assay; format: cell-based; conditions: several heme cancer cell lines incl. MCL, MM and lymphoma
Method: Heme cancer cells were treated with a PRMT5 inhibitor and a Cell Titer-Glo growth/death assay was performed.

[7] = system: p53 expression in Z138 cells; test: p53 and p21 expression analysis (Western); format: cell-based, Human; conditions: Z138 mantle cell lymphoma cells
Method: Z138 cells were seeded at approximately 3×10^6 cells/dish in 10 cm tissue culture dishes in a volume of 10 mL IMDM+10% horse serum media. Cells were treated with 1 μM of Formula C for 1, 2, 3, 4, or 5 days. Cell pellets were collected by centrifuging at 500×g for 5 minutes, washing once with PBS, and freezing at −80° C. until ready to be processed.
Protein lysates were prepared by adding RIPA buffer (Sigma R0278) containing protease inhibitor (about 5× the volume of the cell pellet, or roughly 250 μL) to each cell pellet and pipetting to resuspend. Samples were sonicated with 10×1 second pulses then centrifuged at maximum speed (13,300 RPM) for 6 minutes. 200 μL of supernatant was transferred to a fresh Eppendorf tube, and pellets were discarded. Protein concentration was determined using a Pierce BCA Protein Assay kit.
Protein gel samples were prepared by combining 20 μg of lysate with appropriate volumes of Life Technologies NuPage Sample Reducing Agent, LDS Sample Buffer, and RIPA buffer. Gel samples were heated for 5-10 minutes at 100° C. in a heat block. A 15-well Invitrogen 4-12% Bis-Tris NuPAGE-SDS gel was loaded with a volume of 19 μL per well, and run in MES SDS buffer at 150V for about 1 hour or until maximal separation of bands was achieved.
Gels were transferred onto nitrocellulose membranes using an Invitrogen iBlot system. […]

[8] = 96 h, day 4, N = 1, read-out: sDMA Western blot IC50 10 kDa Band
[9] = Table 3, read-out: sDMA Western IC50

Structure (SMILES): CC(=O)N1CCC(Nc2cc(C(=O)NC[C@H](O)CN3CCc4ccccc4C3)ccn2)CC1 [Formula B]
- pIC50 (Maver-1; Maver1, 264 h, 11-day treatment, N = 1, read-out: Formula B LTP IC50): 7.59
- IC90 (Maver-1; Maver1, 264 h, 11-day treatment, N = 1, read-out: Formula B LTP IC90): 73 nM
- pIC50 (Maver-1; Maver1, Table 3, read-out: LTP IC50): 7.82
- pIC50 (Mino; 264 h, 11-day treatment, N = 1, read-out: Formula B LTP IC50): 6.92
- IC90 (Mino; 264 h, 11-day treatment, N = 1, read-out: Formula B LTP IC90): 611 nM
- pIC50 (Mino; Table 3, read-out: LTP IC50): 7.19
- pIC50 [1, 8]: 9.52
- pIC50 [1, 9]: 9.52
- pIC50 [2, 8]: 8.02
- pIC50 [2, 9]: 8.02
- pIC50 ([3]; Maver1, 96 h, day 4, N = 1, read-out: sDMA Western blot IC50 10 kDa Band): 10.00
- pIC50 ([3]; Maver1, Table 3, read-out: sDMA Western IC50): 10.00
- pIC50 [4, 8]: 8.70
- pIC50 [4, 9]: 8.70
- pIC50 [5, 8]: 9.00
- pIC50 [5, 9]: 9.00
- gene expression for p21, TRIM22, and FAS (Granta-519): only modest increases
- increase in the gene PHLDA3 (Granta-519): ≤ 10 fold
- effects in any of the genes tested (Jeko-1 cells): did not show any significant effects
- effects in any of the genes tested (Mino cells): did not show any significant effects
- Tumor growth inhibition (TGI) (Maver-1 xenograft model): > 50%

Structure (SMILES): O=C(NC[C@H](O)CN1CCc2ccccc2C1)c1ccnc(NC2CCC2)c1 [Formula C]
- proliferation in heme cancer cell lines [6]: inhibits proliferation
- p53 expression [7]: increases
